Data taken from patent US20070208026A1, “N-Containing Heteroaromatic Compounds As Modulators Of Ppars And Methods Of Treating Metabolic Disorders” (priority 2003, published 2007).

Legend:
Assay in all cases: cell-based human PPAR-GAL4 chimera luciferase reporter assay in CV-1 cells
hPPAR α = target: T1, hPPAR α (Homo sapiens, UniProt Q07869); conditions: PPAR LBD-GAL4 chimera, 24 hours treatment; for EC50: read-out: hPPAP α (EC50)
T1 construct: expressed in transfected cells; host or cells: CV-1 cells
T1 sequence (Q07869 239-466 limits assumed): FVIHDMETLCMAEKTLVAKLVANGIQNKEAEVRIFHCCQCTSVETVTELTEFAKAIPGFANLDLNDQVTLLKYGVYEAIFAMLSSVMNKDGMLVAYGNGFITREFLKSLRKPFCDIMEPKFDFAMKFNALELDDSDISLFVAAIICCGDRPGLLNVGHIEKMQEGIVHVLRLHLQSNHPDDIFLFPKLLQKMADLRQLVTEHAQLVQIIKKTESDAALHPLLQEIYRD
Method: (§1) The compounds were evaluated in a cell-based assay to determine their human PPAR activity (See Tables 2 and 3). The plasmids for human PPAR-GAL4 chimeras were prepared by fusing amplified cDNAs encoding the LBDs of PPARs to the C-terminal end of the yeast GAL4 DNA binding domain. CV-1 cells were grown and transiently tranfected with PerFectin (GTS, San Diego, Calif.) according to the manufacturer's protocol along with a luciferase reporter. Eight hours after transfection, 50 μl of cells were replated into 384 well plates ([…]). Sixteen hours after replating, cells were treated with either compounds or 1% DMSO for 24 hours. Luciferase activity was then assayed with Britelite (Perkin Elmer) following the manufacturer's protocol and measured with either the Perkin Elmer Viewlux or Molecular Devices Acquest.

hPPAR γ = target: T2, hPPAR γ (Homo sapiens, UniProt P37231); conditions: PPAR LBD-GAL4 chimera, 24 hours treatment
T2 construct: expressed in transfected cells; host or cells: CV-1 cells
T2 sequence (P37231 238-503 limits assumed): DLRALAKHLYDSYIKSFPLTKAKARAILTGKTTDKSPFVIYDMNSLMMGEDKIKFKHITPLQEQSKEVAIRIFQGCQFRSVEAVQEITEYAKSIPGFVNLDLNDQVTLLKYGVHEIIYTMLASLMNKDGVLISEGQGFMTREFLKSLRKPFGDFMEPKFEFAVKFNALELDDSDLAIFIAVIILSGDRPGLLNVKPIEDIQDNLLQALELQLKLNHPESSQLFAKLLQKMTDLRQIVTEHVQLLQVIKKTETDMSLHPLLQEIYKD
Method: as §1

hPPAR δ = target: T3, hPPAR δ (Homo sapiens, UniProt Q03181); conditions: PPAR LBD-GAL4 chimera, 24 hours treatment
T3 construct: expressed in transfected cells; host or cells: CV-1 cells
T3 sequence (Q03181 211-439 limits assumed): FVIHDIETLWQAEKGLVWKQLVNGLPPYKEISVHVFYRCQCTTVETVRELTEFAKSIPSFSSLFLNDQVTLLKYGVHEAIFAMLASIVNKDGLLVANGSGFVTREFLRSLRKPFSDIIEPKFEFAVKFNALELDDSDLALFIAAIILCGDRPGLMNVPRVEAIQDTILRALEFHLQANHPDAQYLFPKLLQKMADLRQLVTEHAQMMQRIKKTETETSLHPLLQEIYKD
Method: as §1

| EC50 (hPPAR α) | EC50 (hPPAR γ) | EC50 (hPPAR δ) | hPPAR δ (EC50) (hPPAR δ) | hPPAP α (EC50) (hPPAR α) | SMILES |
| --- | --- | --- | --- | --- | --- |
| > 100 µM | 1 to 100 µM | > 100 µM |  |  | CCc1cnc(N(CCCOc2cccc3ccc(C(=O)O)nc23)Cc2ccc(C(F)(F)F)cc2C(F)(F)F)nc1 |
| > 100 µM | < 1 µM | 1 to 100 µM |  |  | CCc1cnc(N(CCCOc2ccc3[nH]cc(CC(=O)O)c3c2)Cc2ccc(C(F)(F)F)cc2C(F)(F)F)nc1 |
| 1 to 100 µM | < 1 µM |  | B/C |  | CCc1cnc(N(CCCOc2ccc3c(c2)c(CC(=O)O)cn3C)Cc2ccc(C(F)(F)F)cc2C(F)(F)F)nc1 |
| > 100 µM | < 1 µM | < 1 µM |  |  | O=C(O)Cc1c[nH]c2ccc(OCCCN(Cc3ccc(C(F)(F)F)cc3C(F)(F)F)c3nc4ccccc4o3)cc12 |
| > 100 µM | < 1 µM | 1 to 100 µM |  |  | O=C(O)Cc1c[nH]c2ccc(OCCCN(Cc3ccc(C(F)(F)F)cc3C(F)(F)F)c3ccccn3)cc12 |
| > 100 µM | < 1 µM | > 100 µM |  |  | O=C(O)Cc1c[nH]c2ccc(OCCCN(Cc3ccc(C(F)(F)F)cc3C(F)(F)F)c3nc4ccccc4s3)cc12 |
| > 100 µM | < 1 µM | > 100 µM |  |  | CCc1cnc(N(CCCOc2nc3ccccc3nc2C(=O)O)Cc2ccc(C(F)(F)F)cc2C(F)(F)F)nc1 |
| > 100 µM | < 1 µM | > 100 µM |  |  | O=C(O)c1nc2ccccc2nc1OCCCN(Cc1ccc(C(F)(F)F)cc1C(F)(F)F)c1nc2ccccc2o1 |
| > 100 µM | < 1 µM | > 100 µM |  |  | O=C(O)c1nc2ccccc2nc1OCCCN(Cc1ccc(C(F)(F)F)cc1C(F)(F)F)c1ccccn1 |
| > 100 µM | < 1 µM | > 100 µM |  |  | O=C(O)c1nc2ccccc2nc1OCCCN(Cc1ccc(C(F)(F)F)cc1C(F)(F)F)c1nc2ccccc2s1 |
|  | < 1 µM | 1 to 100 µM |  | B/C | CCc1cnc(N(CCCOc2cncc(C(=O)O)c2)Cc2ccc(C(F)(F)F)cc2C(F)(F)F)nc1 |
| > 100 µM | < 1 µM | > 100 µM |  |  | CCc1cnc(N(CCCOc2ncc(C(=O)O)cc2Cl)Cc2ccc(C(F)(F)F)cc2C(F)(F)F)nc1 |
| 1 to 100 µM | < 1 µM | > 100 µM |  |  | O=C(O)c1cncc(OCCCN(Cc2ccc(C(F)(F)F)cc2)c2nc3ccccc3s2)c1 |
| > 100 µM | 1 to 100 µM | > 100 µM |  |  | O=C(O)c1cncc(OCCCN(Cc2ccc(C(F)(F)F)cc2C(F)(F)F)c2nc3ccccc3o2)c1 |
| 1 to 100 µM | < 1 µM | 1 to 100 µM |  |  | O=C(O)c1cncc(OCCCN(Cc2ccc(C(F)(F)F)cc2C(F)(F)F)c2ccccn2)c1 |
| > 100 µM | 1 to 100 µM | > 100 µM |  |  | O=C(O)c1cncc(OCCCN(Cc2ccc(C(F)(F)F)cc2C(F)(F)F)c2nc3ccccc3s2)c1 |
|  | < 1 µM | > 100 µM |  | A/B | CCc1cnc(N(CCCOc2cccc(C(=O)O)n2)Cc2ccc(C(F)(F)F)cc2C(F)(F)F)nc1 |
| 1 to 100 µM | < 1 µM | 1 to 100 µM |  |  | CCCCN(CCCOc1cccc(C(=O)O)n1)c1ncc(CC)cn1 |
| > 100 µM | < 1 µM | > 100 µM |  |  | O=C(O)c1cccc(OCCCN(Cc2ccc(C(F)(F)F)cc2)c2nc3ccccc3s2)n1 |
| < 1 µM | > 100 µM | > 100 µM |  |  | O=C(O)c1cccc(OCCCN(Cc2ccc(C(F)(F)F)cc2C(F)(F)F)c2nc3ccccc3o2)n1 |
| 1 to 100 µM | < 1 µM | > 100 µM |  |  | O=C(O)c1cccc(OCCCN(Cc2ccc(C(F)(F)F)cc2C(F)(F)F)c2ccccn2)n1 |
| < 1 µM | < 1 µM | > 100 µM |  |  | O=C(O)c1cccc(OCCCN(Cc2ccc(C(F)(F)F)cc2C(F)(F)F)c2nc3ccccc3s2)n1 |

The remaining lines, values behind:

| SMILES | EC50 (hPPAR α) | EC50 (hPPAR γ) | EC50 (hPPAR δ) | hPPAR δ (EC50) (hPPAR δ) | hPPAP α (EC50) (hPPAR α) |
| --- | --- | --- | --- | --- | --- |
| CCCCN(CCCOc1ccc2[nH]cc(CC(=O)O)c2c1)c1ncc(CC)cn1 | > 100 µM | 1 to 100 µM | > 100 µM |  |  |
| CCCCN(CCCOc1ccc2[nH]cc(CC(=O)O)c2c1)c1ccccn1 | > 100 µM | 1 to 100 µM | > 100 µM |  |  |
| CCCCN(CCCOc1ccc2[nH]cc(CC(=O)O)c2c1)c1nc2ccccc2s1 | > 100 µM | 1 to 100 µM | 1 to 100 µM |  |  |
| CCCCN(CCCOc1ccc2[nH]cc(CC(=O)O)c2c1)c1nc2ccccc2o1 | > 100 µM | 1 to 100 µM | 1 to 100 µM |  |  |
| CCCCN(CCCOc1nc2ccccc2nc1C(=O)O)c1ncc(CC)cn1 | > 100 µM | 1 to 100 µM | 1 to 100 µM |  |  |
| CCCCN(CCCOc1nc2ccccc2nc1C(=O)O)c1ccccn1 | > 100 µM | 1 to 100 µM | > 100 µM |  |  |
| CCCCN(CCCOc1nc2ccccc2nc1C(=O)O)c1nc2ccccc2s1 | > 100 µM | 1 to 100 µM | > 100 µM |  |  |
| CCCCN(CCCOc1nc2ccccc2nc1C(=O)O)c1nc2ccccc2o1 | > 100 µM | 1 to 100 µM | > 100 µM |  |  |
| O=C(O)c1nc2ccccc2nc1OCCCN(Cc1ccc(C(F)(F)F)cc1)c1nc2ccccc2s1 | > 100 µM | > 100 µM | > 100 µM |  |  |
| CCCCN(CCCOc1cncc(C(=O)O)c1)c1ncc(CC)cn1 | > 100 µM | < 1 µM | > 100 µM |  |  |
| CCCCN(CCCOc1cncc(C(=O)O)c1)c1ccccn1 | > 100 µM | 1 to 100 µM | > 100 µM |  |  |
| CCCCN(CCCOc1cncc(C(=O)O)c1)c1nc2ccccc2s1 | > 100 µM | < 1 µM | > 100 µM |  |  |
| CCCCN(CCCOc1cncc(C(=O)O)c1)c1nc2ccccc2o1 | > 100 µM | 1 to 100 µM | > 100 µM |  |  |
| CCCCN(CCCOc1cccc(C(=O)O)n1)c1ccccn1 | > 100 µM | 1 to 100 µM | > 100 µM |  |  |
| CCCCN(CCCOc1cccc(C(=O)O)n1)c1nc2ccccc2s1 | > 100 µM | 1 to 100 µM | > 100 µM |  |  |
| CCCCN(CCCOc1cccc(C(=O)O)n1)c1nc2ccccc2o1 | 1 to 100 µM | < 1 µM | > 100 µM |  |  |
